Target: T1, human ENT1 (Homo sapiens, UniProt Q99808)
T1 sequence (Q99808 1-456): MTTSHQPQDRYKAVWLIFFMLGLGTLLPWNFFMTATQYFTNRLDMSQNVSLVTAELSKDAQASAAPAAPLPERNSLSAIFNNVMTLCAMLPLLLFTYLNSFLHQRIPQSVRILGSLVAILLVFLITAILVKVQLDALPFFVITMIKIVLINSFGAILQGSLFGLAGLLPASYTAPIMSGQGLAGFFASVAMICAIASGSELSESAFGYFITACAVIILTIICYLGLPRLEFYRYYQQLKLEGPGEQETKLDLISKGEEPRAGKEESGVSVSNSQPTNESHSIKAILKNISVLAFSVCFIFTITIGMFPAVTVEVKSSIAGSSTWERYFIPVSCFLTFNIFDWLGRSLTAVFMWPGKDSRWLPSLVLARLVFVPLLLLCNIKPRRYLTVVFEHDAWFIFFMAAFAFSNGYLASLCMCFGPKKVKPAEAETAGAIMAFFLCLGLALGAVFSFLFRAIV
Assay: ENT1 binding assay (competition with Sahenta-DY647 on JAR cells)
Parameters: JAR cells expressing ENT1 were bought from ATCC; host or cells: JAR cells
Settings: binned IC50
Description: Purpose. […] By measuring the fluorescence at the end of the assay we could assess the binding potency of the compounds of the present invention.
JAR cells were resuspended in the described buffer. Compounds of the present invention and Sahenta-DY647 were diluted 200× in the described buffer.
The total volume of the reaction was 100 μL (50 μL of cells, 25 μL of the compounds of the present invention and 25 μL of Sahenta-DY647) in a 96 well plate, U-bottom (Greiner®, #650-180). The plates were washed 2× by centrifugation (4 min, 400 rcf at 4° C.) in the same buffer.

IC50	Compound
500 to 1000 nM	COCCN(CCOC)c1nc(N2CCC(OC)CC2)c2nc(N(CCOC)CCOC)nc(NCCCCCC#N)c2n1 [Compound 182, 6-((2,6-bis(bis(2-methoxyethyl)amino)-8-(4-methoxypiperidin-1-yl)pyrimido[5,4-d]pyrimidin-4-yl)amino)hexanenitrile]
< 100 nM	COCCN(CCOC)c1nc(N2CCn3nc(C)nc3C2)c2nc(N(CCOC)CCOC)nc(N3CCN(C)C(=O)C3)c2n1 [Compound 301, 4-(2,6-bis(bis(2-methoxyethyl)amino)-8-(2-methyl-5,6-dihydro-[1,2,4]triazolo[1,5-a]pyrazin-7(8H)-yl)pyrimido[5,4-d]pyrimidin-4-yl)-1-methylpiperazin-2-one]
< 100 nM	COCCN(Cc1ccc(OC)c(OC)c1OC)c1nc(N2CCN(C)C(=O)C2)c2nc(N(CCO)CCO)nc(N3CCC(OC)CC3)c2n1 [Compound 305, 4-(6-(bis(2-hydroxyethyl)amino)-2-((2-methoxyethyl)(2,3,4-trimethoxybenzyl)amino)-8-(4-methoxypiperidin-1-yl)pyrimido[5,4-d]pyrimidin-4-yl)-1-methylpiperazin-2-one]
100 to 500 nM	COCCN(CCOC)c1nc(N2CCC(OC)CC2)c2nc(N(CCOC)CCOC)nc(N3CCCC3)c2n1 [Compound 89, N2,N2,N6,N6-tetrakis(2-methoxyethyl)-4-(4-methoxypiperidin-1-yl)-8-(pyrrolidin-1-yl)pyrimido[5,4-d]pyrimidine-2,6-diamine]
100 to 500 nM	COCCN(CCOC)c1nc(N2CCC(OC)CC2)c2nc(N(CCOC)CCOC)nc(OCc3cccc(C#N)c3)c2n1 [Compound 156, 3-(((2,6-bis(bis(2-methoxyethyl)amino)-8-(4-methoxypiperidin-1-yl)pyrimido[5,4-d]pyrimidin-4-yl)oxy)methyl)benzonitrile]
100 to 500 nM	COCCN(CCOC)c1nc(N2CCc3cc(OC)c(OC)cc3C2)c2nc(N(CCOC)CCOC)nc(N3CCc4cc(OC)c(OC)cc4C3)c2n1 [Compound 4, 4,8-bis(6,7-dimethoxy-3,4-dihydroisoquinolin-2(1H)-yl)-N2,N2,N6,N6-tetrakis(2-methoxyethyl)pyrimido[5,4-d]pyrimidine-2,6-diamine]
500 to 1000 nM	CCNc1nc(N(CCOC)CCOC)nc2c(N3CCC(OC)CC3)nc(N(CCOC)CCOC)nc12 [Compound 126, N4-ethyl-N2,N2,N6,N6-tetrakis(2-methoxyethyl)-8-(4-methoxypiperidin-1-yl)pyrimido[5,4-d]pyrimidine-2,4,6-triamine]
< 100 nM	COCCN(CCOC)c1nc(N2CCC(OC)CC2)c2nc(N(CCOC)CCOC)nc(NCc3cccc(Cl)c3)c2n1 [Compound 141, N4-(3-chlorobenzyl)-N2,N2,N6,N6-tetrakis(2-methoxyethyl)-8-(4-methoxypiperidin-1-yl)pyrimido[5,4-d]pyrimidine-2,4,6-triamine]
500 to 1000 nM	COCCN(CCOC)c1nc(N2CCN(c3nnc(C)o3)CC2)c2nc(N(CCOC)CCOC)nc(N3CCN(c4nnc(C)o4)CC3)c2n1 [Compound 130, N2,N2,N6,N6-tetrakis(2-methoxyethyl)-4,8-bis(4-(5-methyl-1,3,4-oxadiazol-2-yl)piperazin-1-yl)pyrimido[5,4-d]pyrimidine-2,6-diamine]
< 100 nM	COCCN(CCOC)c1nc(N2CCc3nn(C)cc3C2)c2nc(N(CCOC)CCOC)nc(N3CCN(C)C(=O)C3)c2n1 [Compound 252, 4-(2,6-bis(bis(2-methoxyethyl)amino)-8-(2-methyl-2,4,6,7-tetrahydro-5H-pyrazolo[4,3-c]pyridin-5-yl)pyrimido[5,4-d]pyrimidin-4-yl)-1-methylpiperazin-2-one]
100 to 500 nM	COCCN(CCOC)c1nc(N2CCC(OC)CC2)c2nc(N(CCOC)CCOC)nc(NCC(C)(C)C)c2n1 [Compound 50, N2,N2,N6,N6-tetrakis(2-methoxyethyl)-8-(4-methoxypiperidin-1-yl)-N4-neopentylpyrimido[5,4-d]pyrimidine-2,4,6-triamine]
100 to 500 nM	COCCN(CCOC)c1nc(N2CC(O)(C(F)(F)F)C2)c2nc(N(CCOC)CCOC)nc(N3CCN(C)C(=O)C3)c2n1 [Compound 189, 4-(2,6-bis(bis(2-methoxyethyl)amino)-8-(3-hydroxy-3-(trifluoromethyl)azetidin-1-yl)pyrimido[5,4-d]pyrimidin-4-yl)-1-methylpiperazin-2-one]
< 100 nM	COCCN(CCOC)c1nc(N2CCN(C)C(=O)C2)c2nc(N(CCOC)CCOC)nc(NCc3cccc(OC(F)(F)F)c3)c2n1 [Compound 210, 4-(2,6-bis(bis(2-methoxyethyl)amino)-8-((3-(trifluoromethoxy)benzyl)amino)pyrimido[5,4-d]pyrimidin-4-yl)-1-methylpiperazin-2-one]
500 to 1000 nM	COCCN(CCO)c1nc(N2CCC(OC)CC2)c2nc(N(CCOC)CCOC)nc(N3CCC(OC)CC3)c2n1 [Compound 34, 2-((6-(bis(2-methoxyethyl)amino)-4,8-bis(4-methoxypiperidin-1-yl)pyrimido[5,4-d]pyrimidin-2-yl)(2-methoxyethyl)amino)ethanol]
100 to 500 nM	COCCN(CCOC)c1nc(N2CCC(C(N)=O)CC2)c2nc(N(CCOC)CCOC)nc(N3CCC(OC)CC3)c2n1 [Compound 75, 1-(2,6-bis(bis(2-methoxyethyl)amino)-8-(4-methoxypiperidin-1-yl)pyrimido[5,4-d]pyrimidin-4-yl)piperidine-4-carboxamide]
< 100 nM	CCCN(CCC)c1nc(N(CCOC)CCOC)nc2c(N3CCC(OC)CC3)nc(N(CCOC)CCOC)nc12 [Compound 165, N2,N2,N6,N6-tetrakis(2-methoxyethyl)-8-(4-methoxypiperidin-1-yl)-N4,N4-dipropylpyrimido[5,4-d]pyrimidine-2,4,6-triamine]
100 to 500 nM	COCCN(CCOC)c1nc(N2CCC(OC)C2)c2nc(N(CCOC)CCOC)nc(N3CCC(OC)CC3)c2n1 (stereo not shown) [Compound 80, N2,N2,N6,N6-tetrakis(2-methoxyethyl)-4-(4-methoxypiperidin-1-yl)-8-(3-methoxypyrrolidin-1-yl)pyrimido[5,4-d]pyrimidine-2,6-diamine]
< 100 nM	COCCN(CCOC)c1nc(N2CCc3oncc3C2)c2nc(N(CCOC)CCOC)nc(N3CCN(C)C(=O)C3)c2n1 [Compound 261, 4-(2,6-bis(bis(2-methoxyethyl)amino)-8-(6,7-dihydroisoxazolo[4,5-c]pyridin-5(4H)-yl)pyrimido[5,4-d]pyrimidin-4-yl)-1-methylpiperazin-2-one]
< 100 nM	COCCN(CCOC)c1nc(N2CCN(C)C(=O)C2)c2nc(N(CCOC)Cc3cc(OC)c(OC)c(OC)c3)nc(N3CCC(OC)CC3)c2n1 [Compound 269, 4-(2-(bis(2-methoxyethyl)amino)-6-((2-methoxyethyl)(3,4,5-trimethoxybenzyl)amino)-8-(4-methoxypiperidin-1-yl)pyrimido[5,4-d]pyrimidin-4-yl)-1-methylpiperazin-2-one]
500 to 1000 nM	COCCN(CCOC)c1nc(N2CCC(OC)CC2)c2nc(N(CCOC)CCOC)nc(NCCCO)c2n1 [Compound 175, 3-((2,6-bis(bis(2-methoxyethyl)amino)-8-(4-methoxypiperidin-1-yl)pyrimido[5,4-d]pyrimidin-4-yl)amino)propan-1-ol]
500 to 1000 nM	COCCN(CCOC)c1nc(N2CCN(C)C(=O)C2)c2nc(N3CCc4[nH]cnc4C3)nc(N3CCC(OC)CC3)c2n1 [Compound 291, 4-(2-(bis(2-methoxyethyl)amino)-8-(4-methoxypiperidin-1-yl)-6-(1,4,6,7-tetrahydro-5H-imidazo[4,5-c]pyridin-5-yl)pyrimido[5,4-d]pyrimidin-4-yl)-1-methylpiperazin-2-one]
< 100 nM	COCCN(CCOC)c1nc(N2CCC(CO)C2)c2nc(N(CCOC)CCOC)nc(N3CCC(OC)CC3)c2n1 (stereo not shown) [Compound 136, (1-(2,6-bis(bis(2-methoxyethyl)amino)-8-(4-methoxypiperidin-1-yl)pyrimido[5,4-d]pyrimidin-4-yl)pyrrolidin-3-yl)methanol]
500 to 1000 nM	COCCN(CCOC)c1nc(N2CCC(OC)CC2)c2nc(N(CCOC)CCOC)nc(NCCC(C)(C)O)c2n1 [Compound 178, 4-((2,6-bis(bis(2-methoxyethyl)amino)-8-(4-methoxypiperidin-1-yl)pyrimido[5,4-d]pyrimidin-4-yl)amino)-2-methylbutan-2-ol]
< 100 nM	COCCN(CCOC)c1nc(N2CC[C@H](F)C2)c2nc(N(CCOC)CCOC)nc(N3CCC(OC)CC3)c2n1 [Compound 102, (S)-4-(3-fluoropyrrolidin-1-yl)-N2,N2,N6,N6-tetrakis(2-methoxyethyl)-8-(4-methoxypiperidin-1-yl)pyrimido[5,4-d]pyrimidine-2,6-diamine]
500 to 1000 nM	COCCOC1CCN(c2nc(N(CCOC)CCOC)nc3c(N4CCC(OC)CC4)nc(N(CCOC)CCOC)nc23)CC1 [Compound 202, 4-(4-(2-methoxyethoxy)piperidin-1-yl)-N2,N2,N6,N6-tetrakis(2-methoxyethyl)-8-(4-methoxypiperidin-1-yl)pyrimido[5,4-d]pyrimidine-2,6-diamine]

Reference: patent publication US20230146675A1, “PYRIMIDO[5,4-d]PYRIMIDINE DERIVATIVES AS ENT INHIBITORS FOR THE TREATMENT OF CANCERS, AND COMBINATION THEREOF WITH ADENOSINE RECEPTOR ANTAGONISTS” (ITEOS BELGIUM SA, priority 2020, published 2023)
